Assay results reported in PubChem BioAssay AID2060341 (Molecular Pharmacology Branch, DTP, NCI, 2025).

System: 327498-153-R-J2-PDC multicell spheroid viability
Assay: Anticancer human tumor 327498-153-R-J2-PDC patient-derived uterine carcinosarcoma cell line growth inhibition [IpAb]
Details: for IC50: curve of first compound; for viability, T/C: stronger effect = lower value
Method in brief: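 Combinations with ipatasertib or abemaciclib were tested on tumour spheroids holding HUVEC (25%) and MSC (15%) alongside 60% malignant cells. Top concentration was at or near clinical Cmax (10 microM if undefined), descending in half-log steps.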
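Also: spheroids exposed to agents for 7 days.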
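For viability, T/C in this document: 100% = DMSO vehicle control viability.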

C=CC(=O)N1CCN(c2nc(=O)n(-c3c(C)ccnc3C(C)C)c3nc(-c4c(O)cccc4F)c(F)cc23)C(C)C1 (stereo not given) + CC(C)NCC(C(=O)N1CCN(c2ncnc3c2C(C)CC3O)CC1)c1ccc(Cl)cc1
IC50 (second compound 0.1 µM): 219 nM | IC50 (second compound 0.316 µM): < 31.6 nM | IC50 (second compound 1 µM): < 31.6 nM | IC50 (second compound 3.16 µM): < 31.6 nM | IC50 (second compound 10 µM): < 31.6 nM | viability, T/C (second compound 0.1 µM, first compound 0.0316 µM): 66.7% | viability, T/C (second compound 0.1 µM, first compound 0.1 µM): 55.7% | viability, T/C (second compound 0.1 µM, first compound 0.316 µM): 45.3% | viability, T/C (second compound 0.1 µM, first compound 1 µM): 46.4% | viability, T/C (second compound 0.1 µM, first compound 3.16 µM): 43.8% | viability, T/C (second compound 0.1 µM, first compound 10 µM): 40.8% | viability, T/C (second compound 0.316 µM, first compound 0.0316 µM): 46.2% | viability, T/C (second compound 0.316 µM, first compound 0.1 µM): 36.6% | viability, T/C (second compound 0.316 µM, first compound 0.316 µM): 36.8% | viability, T/C (second compound 0.316 µM, first compound 1 µM): 30.3% | viability, T/C (second compound 0.316 µM, first compound 3.16 µM): 30.5% | viability, T/C (second compound 0.316 µM, first compound 10 µM): 29.1% | viability, T/C (second compound 1 µM, first compound 0.0316 µM): 37.3% | viability, T/C (second compound 1 µM, first compound 0.1 µM): 25.6% | viability, T/C (second compound 1 µM, first compound 0.316 µM): 22.4% | viability, T/C (second compound 1 µM, first compound 1 µM): 22.4% | viability, T/C (second compound 1 µM, first compound 3.16 µM): 21.1% | viability, T/C (second compound 1 µM, first compound 10 µM): 18.9% | viability, T/C (second compound 3.16 µM, first compound 0.0316 µM): 28.9% | viability, T/C (second compound 3.16 µM, first compound 0.1 µM): 19.3% | viability, T/C (second compound 3.16 µM, first compound 0.316 µM): 15.7% | viability, T/C (second compound 3.16 µM, first compound 1 µM): 16.6% | viability, T/C (second compound 3.16 µM, first compound 3.16 µM): 15% | viability, T/C (second compound 3.16 µM, first compound 10 µM): 15.7% | viability, T/C (second compound 10 µM, first compound 0.0316 µM): 15.2% | viability, T/C (second compound 10 µM, first compound 0.1 µM): 14.2% | viability, T/C (second compound 10 µM, first compound 0.316 µM): 14.5% | viability, T/C (second compound 10 µM, first compound 1 µM): 13.3% | viability, T/C (second compound 10 µM, first compound 3.16 µM): 12.1% | viability, T/C (second compound 10 µM, first compound 10 µM): 11.4%

CC(C)(C)c1cnc(CSc2cnc(NC(=O)C3CCNCC3)s2)o1 + CC(C)NCC(C(=O)N1CCN(c2ncnc3c2C(C)CC3O)CC1)c1ccc(Cl)cc1
IC50 (second compound 0.1 µM): 131 nM | IC50 (second compound 0.316 µM): 109 nM | IC50 (second compound 1 µM): 45.4 nM | IC50 (second compound 3.16 µM): < 9.49 nM | IC50 (second compound 10 µM): < 9.49 nM | viability, T/C (second compound 0.1 µM, first compound 0.00949 µM): 101% | viability, T/C (second compound 0.1 µM, first compound 0.03 µM): 103% | viability, T/C (second compound 0.1 µM, first compound 0.0949 µM): 69.1% | viability, T/C (second compound 0.1 µM, first compound 0.3 µM): 1.04% | viability, T/C (second compound 0.1 µM, first compound 0.949 µM): 0.63% | viability, T/C (second compound 0.1 µM, first compound 3 µM): 0.58% | viability, T/C (second compound 0.316 µM, first compound 0.00949 µM): 80.3% | viability, T/C (second compound 0.316 µM, first compound 0.03 µM): 82.2% | viability, T/C (second compound 0.316 µM, first compound 0.0949 µM): 56.9% | viability, T/C (second compound 0.316 µM, first compound 0.3 µM): 0.5% | viability, T/C (second compound 0.316 µM, first compound 0.949 µM): 0.5% | viability, T/C (second compound 0.316 µM, first compound 3 µM): 0.49% | viability, T/C (second compound 1 µM, first compound 0.00949 µM): 56.2% | viability, T/C (second compound 1 µM, first compound 0.03 µM): 57.9% | viability, T/C (second compound 1 µM, first compound 0.0949 µM): 37.6% | viability, T/C (second compound 1 µM, first compound 0.3 µM): 0.39% | viability, T/C (second compound 1 µM, first compound 0.949 µM): 0.44% | viability, T/C (second compound 1 µM, first compound 3 µM): 0.45% | viability, T/C (second compound 3.16 µM, first compound 0.00949 µM): 48% | viability, T/C (second compound 3.16 µM, first compound 0.03 µM): 45.8% | viability, T/C (second compound 3.16 µM, first compound 0.0949 µM): 28.7% | viability, T/C (second compound 3.16 µM, first compound 0.3 µM): 0.18% | viability, T/C (second compound 3.16 µM, first compound 0.949 µM): 0.36% | viability, T/C (second compound 3.16 µM, first compound 3 µM): 0.34% | viability, T/C (second compound 10 µM, first compound 0.00949 µM): 36.6% | viability, T/C (second compound 10 µM, first compound 0.03 µM): 38% | viability, T/C (second compound 10 µM, first compound 0.0949 µM): 15.1% | viability, T/C (second compound 10 µM, first compound 0.3 µM): 0.21% | viability, T/C (second compound 10 µM, first compound 0.949 µM): 0.55% | viability, T/C (second compound 10 µM, first compound 3 µM): 0.37%
